The values below come from US20260027099A1, “OPHTHALMIC COMPOSITIONS COMPRISING BILASTINE, A BETA-CYCLODEXTRIN AND AT LEAST ONE GELLING AGENT” (FAES FARMA, S.A., priority 2018, published 2026).

Data set [1] in a line: Ocular in vivo biodistribution, bilastine tissue concentration by LC-MS/MS. Also noted: species or system Dutch Belted rabbits. Conditions: Dutch Belted, topical, 24 hours post-administration, rabbit, 30 μL of 0.6% w/v formulation in each eye, single occasion. How it is done: The aqueous ophthalmic formulations of bilastine were prepared at a bilastine concentration of 0.6% w/v. The excipients were as indicated above in Table 1, i.e., also comprised HPB 90 mg/mL, methylcellulose 0.1 mg/mL, sodium hyaluronate 1 mg/mL and glycerin 16.1 mg/mL.
42, 4-5 month-old Dutch Belted rabbits were selected as test subjects. The weight of the animals at treatment start was from 1.6 to 2.1 kg.
Animals received 30 μL of the ophthalmic formulation in each eye on a single occasion. The ophthalmic formulation was placed directly on both eyes of each animal by means of an automatic pipette. A new pipette tip was used for each eye.
The eyes of the test animals were not washed after instillation. Animals were weighed before administration and observed after administration to record any possible clinical sign.
Two to three animals were sacrificed at each time point (0.5, 1, 2, 4, 6, 8, 12 and 24 hours) and the following tissues from both eyes were collected: Aqueous humor, vitreous humor, cornea, conjunctiva, iris/ciliary body, crystalline lens and retina/choroid. Directly after sampling, all solid matrices were weighed (4 decimal precision) to determine the amount of each tissue collected.
Bilastine concentration was determined by LC-MS/MS.
Bilastine analyses were performed according to analytical methods: • PKH/MOA/1022 for rabbit plasma, • PKH/MOA/1042 for rabbit aqueous humor, • PKH/MOA/1043 for rabbit vitreous humor, • PKH/MOA/1028 for rabbit cornea homogenate, • PKH/MOA/1041 for rabbit iris/ciliary body homogenate, • PKH/MOA/1036 for rabbit conjunctiva homogenate, • PKH/MOA/1032 for rabbit crystalline lens homogenate, • PKH/MOA/1029 for rabbit retina/choroid homogenate, which were previously developed and validated at Eurofins|ADME BIOANALYSES according to the Guidance for Industry—Bioanalytical Method Validation—FDA May 2018 and EMA Guideline—EMEA/CHMP/EWP/192217/2009—21 Jul. 2011, in the studies 18-014A to 18-014H.
The analytical methods involved protein precipitation for plasma and involved dilution for other matrices followed by LC-MS/MS analysis using F21201RR (Bilastine-d6) as internal standard.

For data set [2], the system named is histamine-induced conjunctival vascular permeability. The following applies: topical drug administered 2 to 8 hours before subconjunctival histamine challenge; Evans blue dye i.v.; cited from earlier work.

Read-outs that look alike come from different tables or passages of the source.

Regarding `CCOCCn1c(C2CCN(CCc3ccc(C(C)(C)C(=O)O)cc3)CC2)nc2ccccc21` [bilastine, 2-[4-(2-{4-[1-(2-Ethoxyethyl)-1H-benzimidazol-2-yl]-1-piperidinyl}ethyl)phenyl]-2-methylpropanoic acid], the concentration at 24 h in data set [1] (conjunctiva, read-out: bilastine concentration in conjunctiva (mean value)) was determined as 388 ng/g; in data set [1] (cornea, read-out: bilastine concentration in cornea (mean value)) it was 28.7 ng/g; in data set [1] (crystalline lens, read-out: bilastine concentration in crystalline lens), 0.12 ng/g; in data set [1] (iris/ciliary body, read-out: bilastine concentration in iris/ciliary body), 12.4 ng/g; in data set [1] (retina/choroid, read-out: bilastine concentration in retina/choroid) it was 1.91 ng/g. For the same compound, the “ED50 (in vivo anti-histaminic activity)” value in data set [2] is 50% efficacy was not achieved.
